Converted amounts (≈) assume the structure as drawn. Like-named read-outs stand apart in the source and are kept apart here.
How the values were obtained:
[1] = Relative solubility by turbidity in microbiological medium; conditions: pH 6.8, aqueous buffer, kinetic from dmso stock, lowest concentration at which compound was insoluble (turbidity)
Experimental: The relative solubility of compounds was determined in microbiological medium using turbidity as a measure [27]. A serial dilution of compounds was prepared in DMSO and then transferred to microbiological medium at pH 6.8.

[2] = system: M. tuberculosis strain H37Rv-LUX; experiment: microbe, parasite or virus in culture; format: cell-based; conditions: Mycobacterium tuberculosis, read-out: LORA MIC
[3] = system: M. tuberculosis GC1237 (Mtb-GFP) in Raw 264.7 macrophages; experiment: Intracellular mycobacterial replication assay in macrophages; format: cell-based; conditions: Mycobacterium tuberculosis, 120 h, 5 days, read-out: MIC, intracellular M. tuberculosis growth in macrophages
[4] = system: H37Rv-Mtb; experiment: MIC against replicating H37Rv-Mtb in liquid media; format: cell-based, Mycobacterium tuberculosis; conditions: Mycobacterium tuberculosis, H37RV, 120 h, replicating, 5 days, OD590
[5] = molecular target: T1, CYP3A4 (Homo sapiens, UniProt P08684); experiment: biochemical; format: in vitro ADME
T1 construct: human liver microsomes were incubated with a probe substrate for each CYP isoform; from tissue; host or cells: human liver microsomes
Experimental: (§1) Compounds were tested for inhibition of six cytochrome P450 enzyme isoforms—CYP2B6, CYP2C8, CYP2C9, CYP2C19, CYP2D6 and CYP3A4 [27]. For each assay, human liver microsomes were incubated with a probe substrate for each CYP isoform in the presence of compound. Compounds were prepared as a 7-point dilution series in acetonitrile:DMSO (9:1). The final DMSO content in the reaction mixture was equal in all solutions used within an assay and was < 0.2%. Samples were run in duplicate.

[6] = molecular target: T2, CYP2C8 (Homo sapiens, UniProt P10632); experiment: biochemical; format: in vitro ADME; conditions: human liver microsomes; read-out: Cytochrome P450 Inhibition IC50 CYP2C8
T2 construct: human liver microsomes were incubated with a probe substrate for each CYP isoform; from tissue; host or cells: human liver microsomes
Experimental: as §1

[7] = molecular target: T3, CYP2C19 (Homo sapiens, UniProt P33261); experiment: biochemical; format: in vitro ADME; conditions: human liver microsomes; read-out: Cytochrome P450 Inhibition IC50 CYP2C19
T3 construct: human liver microsomes were incubated with a probe substrate for each CYP isoform; from tissue; host or cells: human liver microsomes
Experimental: as §1

[8] = molecular target: T4, CYP2B6 (Homo sapiens, UniProt P20813); experiment: biochemical; format: in vitro ADME; conditions: human liver microsomes; read-out: Cytochrome P450 Inhibition IC50 CYP2B6
T4 construct: human liver microsomes were incubated with a probe substrate for each CYP isoform; from tissue; host or cells: human liver microsomes
Experimental: as §1

[9] = molecular target: T5, CYP2D6 (Homo sapiens, UniProt P10635); experiment: biochemical; format: in vitro ADME; conditions: human liver microsomes; read-out: Cytochrome P450 Inhibition IC50 CYP2D6
T5 construct: human liver microsomes were incubated with a probe substrate for each CYP isoform; from tissue; host or cells: human liver microsomes
Experimental: as §1

[10] = molecular target: T6, CYP2C9 (Homo sapiens, UniProt P11712); experiment: biochemical; format: in vitro ADME; conditions: human liver microsomes; read-out: Cytochrome P450 Inhibition IC50 CYP2C9
T6 construct: human liver microsomes were incubated with a probe substrate for each CYP isoform; from tissue; host or cells: human liver microsomes
Experimental: as §1

[11] = system: murine Raw 264.7 macrophages; conditions: mouse
[12] = in vitro; format: in vitro ADME; conditions: human, s9, NADPH, 37°C
Experimental: Compounds were tested for microsomal stability using pooled human liver S9 microsomes. Microsomes were incubated with the test compound at 37°C in the presence of the co-factor NADPH. The reaction was terminated, the supernatant recovered, and test compounds quantified by LC-MS/MS. A fixed concentration of test compound was tested in duplicate at 5 timepoints and compound stability was expressed as a function of time. Human liver microsomes were purchased from Celsis (catalog number X008068).

[13] = system: VERO cell line; experiment: Eukaryotic cytotoxicity (CellTiter-Glo); format: cell-based, African green monkey; conditions: Chlorocebus sabaeus, 48 h, 2-day incubation, read-out: VERO Toxicity IC50
Experimental: Cytotoxicity was tested against the African green monkey adult kidney cell line (VERO, ATCC CRL-1586) as described. Compounds were tested as 10-point, 3-fold serial dilutions in DMSO (final assay concentration of 1% DMSO) and viability was measured using CellTiter-Glo (Promega). Inhibition curves were fitted using the Levenberg–Marquardt algorithm. IC50 was defined as the concentration required to reduce cell viability by 50% after 2-day incubation.

[14] = system: CYP2B6, CYP2C8, CYP2C9, CYP2C19, CYP2D6, CYP3A4; experiment: in vitro; format: in vitro ADME; conditions: human; range over isoforms, >10 to >20; read-out: IC50 against all the major cytochrome P450 isoforms
Experimental: as §1

[15] = in vitro; conditions: human, Caco-2
[16] = Single dose plasma PK; format: in vivo, Balb/c mice
Experimental: Basic pharmacokinetic analysis was determined after a single dose of 200 mg/kg with and without the administration of 100 mg/kg of 1-aminobenzotriazole (ABT) (Sigma, #A3940) given 2 hr by gavage prior to ND-11543 administration. ABT (100 mg/kg dose) was administered by oral gavage in 0.5% (w/v) methyl cellulose 400 solution. ND-11543 (200 mg/kg dose) was prepared in 20% TPGS and dosed orally 2 hr after ABT administration. Female mice (6–8 week old Balb/c from Charles River) were rested one to two weeks before dosing. Blood was collected from the mice at time points of 0.5, 2, 4, 8, 12 and 24 hr after drug administration. Blood samples (< 100 μL each) for all time points were collected via the mandibular vein in plasma collector tubes, centrifuged and plasma (< 50 μL each) was frozen until further use. Plasma samples were analyzed by LC/MS to determine drug plasma levels.

[17] = in vivo; design: species or system Balb/c mice
Experimental: ND-11543 was dissolved in 20% TPGS (d-α tocopheryl polyethylene glycol 1000 succinate) to give a fine white suspension which was dosed at 100, 300 and 500 mg/kg orally on three consecutive days, 3 mice per dose group. Mice were observed 10 min, 1, 2, 4 hr after dosing and then daily afterwards. During the observations, humane handling practices and animal welfare regulations were strictly followed.

[18] = system: M. tuberculosis Erdman; experiment: Chronic Balb/c model of TB infection; format: in vivo, Balb/c mice; conditions: 200 mg/kg

T1 sequence (P08684 whole entry, canonical isoform): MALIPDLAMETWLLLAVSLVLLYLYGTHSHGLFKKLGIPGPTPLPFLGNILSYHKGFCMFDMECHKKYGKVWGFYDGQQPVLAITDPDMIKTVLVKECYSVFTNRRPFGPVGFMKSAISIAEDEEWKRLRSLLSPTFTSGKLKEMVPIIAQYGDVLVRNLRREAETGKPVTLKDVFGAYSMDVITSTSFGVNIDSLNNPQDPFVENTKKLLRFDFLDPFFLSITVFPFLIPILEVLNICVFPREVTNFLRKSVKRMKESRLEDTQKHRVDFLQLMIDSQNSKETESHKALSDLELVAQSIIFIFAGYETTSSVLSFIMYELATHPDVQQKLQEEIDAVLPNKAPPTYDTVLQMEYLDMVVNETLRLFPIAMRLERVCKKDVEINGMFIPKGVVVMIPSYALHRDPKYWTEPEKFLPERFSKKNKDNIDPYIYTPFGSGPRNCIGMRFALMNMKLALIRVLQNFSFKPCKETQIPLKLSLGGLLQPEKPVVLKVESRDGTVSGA
T6 sequence (P11712 whole entry, canonical isoform): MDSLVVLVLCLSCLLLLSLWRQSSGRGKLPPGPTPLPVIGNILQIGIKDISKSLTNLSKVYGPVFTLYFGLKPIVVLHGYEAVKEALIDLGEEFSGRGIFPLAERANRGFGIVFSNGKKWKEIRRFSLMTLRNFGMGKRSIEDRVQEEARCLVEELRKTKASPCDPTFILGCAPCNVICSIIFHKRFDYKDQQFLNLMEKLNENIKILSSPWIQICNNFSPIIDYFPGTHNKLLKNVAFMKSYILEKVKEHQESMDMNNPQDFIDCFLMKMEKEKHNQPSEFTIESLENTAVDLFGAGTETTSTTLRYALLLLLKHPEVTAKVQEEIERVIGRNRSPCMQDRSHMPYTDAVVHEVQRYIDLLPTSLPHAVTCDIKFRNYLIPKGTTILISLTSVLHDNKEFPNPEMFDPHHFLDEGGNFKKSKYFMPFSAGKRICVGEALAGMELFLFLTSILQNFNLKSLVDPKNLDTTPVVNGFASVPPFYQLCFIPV
T3 sequence (P33261 whole entry, canonical isoform): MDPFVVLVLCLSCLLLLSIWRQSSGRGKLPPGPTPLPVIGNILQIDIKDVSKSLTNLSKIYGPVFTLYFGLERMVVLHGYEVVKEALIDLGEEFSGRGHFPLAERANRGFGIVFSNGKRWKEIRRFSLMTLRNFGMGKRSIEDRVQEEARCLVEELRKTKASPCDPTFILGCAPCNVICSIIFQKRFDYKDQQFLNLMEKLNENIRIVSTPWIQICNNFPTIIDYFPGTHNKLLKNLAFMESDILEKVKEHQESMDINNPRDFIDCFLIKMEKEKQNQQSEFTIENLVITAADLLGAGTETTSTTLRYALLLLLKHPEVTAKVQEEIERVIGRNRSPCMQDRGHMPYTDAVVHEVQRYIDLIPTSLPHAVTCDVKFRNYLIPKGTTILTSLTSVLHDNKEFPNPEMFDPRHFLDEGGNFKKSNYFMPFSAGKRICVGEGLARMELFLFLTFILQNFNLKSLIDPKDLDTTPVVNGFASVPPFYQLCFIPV
T4 sequence (P20813 whole entry, canonical isoform): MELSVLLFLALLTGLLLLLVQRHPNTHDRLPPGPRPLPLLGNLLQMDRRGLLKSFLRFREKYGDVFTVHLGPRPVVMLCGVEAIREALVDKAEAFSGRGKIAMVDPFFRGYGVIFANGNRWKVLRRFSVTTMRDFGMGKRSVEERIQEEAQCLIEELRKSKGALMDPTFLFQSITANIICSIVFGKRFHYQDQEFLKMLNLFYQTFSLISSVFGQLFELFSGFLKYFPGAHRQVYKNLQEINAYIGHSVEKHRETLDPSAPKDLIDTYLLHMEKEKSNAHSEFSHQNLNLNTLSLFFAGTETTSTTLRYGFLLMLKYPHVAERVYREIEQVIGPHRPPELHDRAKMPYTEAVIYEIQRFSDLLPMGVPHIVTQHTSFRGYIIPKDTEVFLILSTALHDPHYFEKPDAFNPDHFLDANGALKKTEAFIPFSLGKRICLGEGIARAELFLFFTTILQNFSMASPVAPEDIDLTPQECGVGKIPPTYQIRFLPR
T5 sequence (P10635 whole entry, canonical isoform): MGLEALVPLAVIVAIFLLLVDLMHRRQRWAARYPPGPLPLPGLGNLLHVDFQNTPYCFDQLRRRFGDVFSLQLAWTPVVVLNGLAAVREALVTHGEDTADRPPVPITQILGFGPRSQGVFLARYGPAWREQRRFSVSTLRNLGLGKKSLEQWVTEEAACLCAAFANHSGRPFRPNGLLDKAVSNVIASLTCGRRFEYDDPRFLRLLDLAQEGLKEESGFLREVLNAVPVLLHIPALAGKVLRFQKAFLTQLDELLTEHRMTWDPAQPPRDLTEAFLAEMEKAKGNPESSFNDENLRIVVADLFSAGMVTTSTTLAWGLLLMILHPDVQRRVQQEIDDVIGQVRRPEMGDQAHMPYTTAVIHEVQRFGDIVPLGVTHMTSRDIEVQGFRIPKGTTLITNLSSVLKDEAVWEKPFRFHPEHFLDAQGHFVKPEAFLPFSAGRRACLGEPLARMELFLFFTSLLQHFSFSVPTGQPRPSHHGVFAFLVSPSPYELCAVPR
T2 sequence (P10632 whole entry, canonical isoform): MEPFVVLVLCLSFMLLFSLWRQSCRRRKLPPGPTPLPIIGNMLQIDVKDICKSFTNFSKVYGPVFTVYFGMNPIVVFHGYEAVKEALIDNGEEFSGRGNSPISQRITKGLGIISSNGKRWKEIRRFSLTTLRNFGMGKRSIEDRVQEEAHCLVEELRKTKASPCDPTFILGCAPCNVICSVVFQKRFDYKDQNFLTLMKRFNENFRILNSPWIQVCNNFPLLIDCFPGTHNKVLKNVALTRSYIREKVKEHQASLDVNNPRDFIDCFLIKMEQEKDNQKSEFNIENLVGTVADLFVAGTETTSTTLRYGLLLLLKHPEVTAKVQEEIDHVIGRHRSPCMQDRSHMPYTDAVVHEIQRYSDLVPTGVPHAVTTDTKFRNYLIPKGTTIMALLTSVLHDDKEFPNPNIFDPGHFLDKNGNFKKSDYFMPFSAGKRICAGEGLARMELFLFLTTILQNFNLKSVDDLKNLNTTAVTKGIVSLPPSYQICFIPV

In the case of `Cc1cn2c(C(=O)NCc3ccc(N4CCN(c5ccc(C(F)(F)F)cn5)CC4)c(F)c3)c(C)nc2s1` [ND-11543, N-(3-fluoro-4-(4-(5-(trifluoromethyl)pyridin-2-yl)piperazin-1-yl)benzyl)-2,6-dimethylimidazo[2,1-b]thiazole-5-carboxamide], the solubility [1] is reported as 50 µM (≈ 26.6 µg/mL), the MIC [2] is reported as 1.1 µM (≈ 0.586 µg/mL) and the MIC [3] is reported as 0.0625 µM (≈ 0.0333 µg/mL). The MIC [4] was 8 nM (≈ 0.00426 µg/mL), the IC50 ([5]; DDI assay including midazolam, read-out: Cytochrome P450 Inhibition IC50 CYP3A4 (midazolam)) was > 20 µM and the IC50 ([5]; DDI assay including tetosterone, read-out: Cytochrome P450 Inhibition IC50 CYP3A4 (tetosterone)) was > 20 µM. For the same compound, the IC50 [6] was 18.4 µM, the IC50 [7] was > 20 µM and the IC50 [8] was > 20 µM. For the same compound, the IC50 [9] was > 20 µM, the IC50 [10] was 10.2 µM and the “Macrophage toxicity concentration relative to MIC” value [11] was 4 and 8-fold higher than their MIC. The microsomal CLint ([12]; read-out: Human liver S9 Microsomes CL) was 81.3 µL/min/mg, the half-life ([12]; read-out: Human liver S9 Microsomes T ½) was 28.4 min and the IC50 [13] was > 50 µM. The IC50 [14] was > 10 µM, the Papp A→B at 1 h [15] was 0.376 ×10⁻⁶ cm/s and the Papp A→B at 2 h [15] was 0.731 ×10⁻⁶ cm/s. For the same compound, the Papp B→A at 1 h [15] was 1.09 ×10⁻⁶ cm/s, the Papp B→A at 2 h [15] was 0.758 ×10⁻⁶ cm/s and the efflux ratio [15] was 2.23. The “AUC(0–24)/Dose” value ([16]; 200 mg/kg oral, without ABT) was 58.5 ng·h/mL/mg/kg, the Cmax/Dose ([16]; 200 mg/kg oral, without ABT) was 3.22 ng/mL/mg/kg and the “Relative Bioavailability [(TA+ABT) / TA]” value ([16]; female, Balb/c, mouse, in vivo) was 318.25. The half-life ([16]; female, Balb/c, mouse, plasma, 200 mg/kg oral, without ABT) was > 1440 min, the MTD ([17]; female, Balb/c, mouse, in vivo, mice, oral, three consecutive daily doses, read-out: Maximum Tolerated Dose, MTD) was > 500 mg/kg and the Acute toxicity observation ([17]; mice, 100, 300 and 500 mg/kg oral) was “No acute toxicity was observed”. For the same compound, the “Log reduction vs Control (Lung)” value ([18]; 4 weeks, without ABT) was 0.30 log10 CFU, the “Log reduction vs Control (Spleen)” value ([18]; 4 weeks, without ABT) was 0.36 log10 CFU and the “Lung Log10 CFU ±SEM” value ([18]; ERDMAN, 672 h) was 5.49 ± 0.08 Log10 CFU. For the same compound, the “Spleen Log10 CFU ±SEM” value ([18]; ERDMAN, 672 h) was 4.64 ± 0.11 Log10 CFU.

From paper PMC6944458, “Intracellular and in vivo evaluation of imidazo[2,1-b]thiazole-5-carboxamide anti-tuberculosis compounds” (PLoS ONE, 2020)
